Measured values published in the NIST ThermoML archive (doi:10.1016/j.fluid.2016.11.031).

Test: molar heat capacity at constant pressure
Details: Liquid, Flow calorimetry

C1C[C@@H]2[C@H]3CC[C@H](C3)[C@@H]2C1 [exo-tetrahydrodicyclopentadiene]
Details | molar heat capacity at constant pressure [J/K/mol]
323.34 K, 100 kPa | 219.49
323.34 K, 4000 kPa | 218.3
323.34 K, 5020 kPa | 218.14
323.35 K, 3070 kPa | 218.8
323.35 K, 6080 kPa | 217.34
323.37 K, 1030 kPa | 219.39
323.37 K, 2050 kPa | 218.99
333.16 K, 3990 kPa | 223.29
333.17 K, 5040 kPa | 223.42
333.17 K, 5990 kPa | 223.32
333.2 K, 100 kPa | 224.4
333.2 K, 1070 kPa | 224.39
333.2 K, 3000 kPa | 223.84
333.21 K, 2020 kPa | 224.41
343.01 K, 100 kPa | 230.29
343.03 K, 1090 kPa | 230.02
343.06 K, 2070 kPa | 229.6
343.06 K, 3060 kPa | 229
343.09 K, 4000 kPa | 229.5
343.09 K, 5030 kPa | 228.72
343.09 K, 6000 kPa | 229.08
353.59 K, 100 kPa | 234.98
353.59 K, 4080 kPa | 234.11
353.59 K, 5070 kPa | 234.17
353.6 K, 6090 kPa | 233.83
353.61 K, 1080 kPa | 234.61
353.61 K, 2010 kPa | 234.35
353.62 K, 3070 kPa | 234.12
363.48 K, 100 kPa | 240.37
363.53 K, 1070 kPa | 240.28
363.53 K, 2030 kPa | 240.09
363.53 K, 2990 kPa | 239.97
363.54 K, 4080 kPa | 239.88
363.54 K, 5000 kPa | 239.76
363.55 K, 6020 kPa | 239.67
383.58 K, 3060 kPa | 248.68
383.58 K, 4010 kPa | 248.49
383.59 K, 5070 kPa | 248.39
383.6 K, 100 kPa | 249.31
383.6 K, 1000 kPa | 248.82
383.6 K, 5990 kPa | 248.35
383.61 K, 2020 kPa | 248.8
403.36 K, 100 kPa | 260.34
403.36 K, 1020 kPa | 259.74
403.37 K, 2060 kPa | 259.23
403.38 K, 3040 kPa | 258.89
403.38 K, 4010 kPa | 257.41
403.39 K, 5000 kPa | 256.93
403.4 K, 6070 kPa | 256.62
423.2 K, 1020 kPa | 271.44
423.2 K, 2050 kPa | 270.28
423.2 K, 3010 kPa | 268.73
423.21 K, 100 kPa | 271.95
423.25 K, 4020 kPa | 267.73
423.26 K, 4980 kPa | 267.54
423.27 K, 6000 kPa | 266.96
443.11 K, 3110 kPa | 282.78
443.13 K, 2050 kPa | 283.43
443.14 K, 1030 kPa | 284.05
443.15 K, 240 kPa | 284.8
443.17 K, 4060 kPa | 282.05
443.18 K, 6050 kPa | 280.75
443.19 K, 5030 kPa | 281.38
463.16 K, 2040 kPa | 298.88
463.17 K, 230 kPa | 301.77
463.18 K, 1060 kPa | 300.31
463.19 K, 4070 kPa | 297.53
463.2 K, 3000 kPa | 299.41
463.21 K, 5010 kPa | 297.44
463.22 K, 6020 kPa | 296.56
483.31 K, 2050 kPa | 316.76
483.32 K, 3040 kPa | 315.54
483.37 K, 4030 kPa | 315.19
483.37 K, 6060 kPa | 314.11
483.38 K, 5080 kPa | 314.31
483.39 K, 1020 kPa | 319.24
483.42 K, 470 kPa | 321.27
503.28 K, 1020 kPa | 336.59
503.28 K, 2040 kPa | 334.35
503.28 K, 3050 kPa | 333.03
503.29 K, 4090 kPa | 330.6
503.29 K, 5070 kPa | 331.61
503.3 K, 480 kPa | 338.7
503.3 K, 6000 kPa | 331.5
523.44 K, 3010 kPa | 348.07
523.45 K, 1030 kPa | 352.98
523.45 K, 2060 kPa | 350.7
523.47 K, 500 kPa | 355.43
523.49 K, 5040 kPa | 345.42
523.49 K, 6180 kPa | 344.08
523.5 K, 4000 kPa | 346.42
